According to patent publication US6900193B1, “Structural modification of 19-norprogesterone I: 17-α-substituted-11-β-substituted-4-aryl and 21-substituted 19-norpregnadienedione as new antiprogestational agents” (The United States of America as represented by the …, priority 1996, dated 2005):
Entries after “also recorded” stand apart in the source; their conditions may differ.

What was measured:
[1] = molecular target: T1, progesterone receptor (estrogen-primed rabbit uterus) (Oryctolagus cuniculus, UniProt P06186); test: Relative binding affinity, progesterone receptor; conditions: for binding affinity for the progesterone receptor, in words: rabbit uterine, versus CDB-2914 (69B) where stated; for BINDING AFFINITY Progester: Table 2; for BINDING AFFINITY Progester / RELATIVE BINDING AFFINITY Progesterone: progesterone = 100%; for binding affinities compared with the standard, compound 69B: progesterone receptor implied (rabbit or human isoform A not specified)
T1 construct: preparation of cytosols for the progesterone and glucocorticoid receptor assays; from tissue; host or cells: uterus of estradiol-primed immature female New Zealand White rabbits (cytosol)
T1 sequence (P06186 1-930): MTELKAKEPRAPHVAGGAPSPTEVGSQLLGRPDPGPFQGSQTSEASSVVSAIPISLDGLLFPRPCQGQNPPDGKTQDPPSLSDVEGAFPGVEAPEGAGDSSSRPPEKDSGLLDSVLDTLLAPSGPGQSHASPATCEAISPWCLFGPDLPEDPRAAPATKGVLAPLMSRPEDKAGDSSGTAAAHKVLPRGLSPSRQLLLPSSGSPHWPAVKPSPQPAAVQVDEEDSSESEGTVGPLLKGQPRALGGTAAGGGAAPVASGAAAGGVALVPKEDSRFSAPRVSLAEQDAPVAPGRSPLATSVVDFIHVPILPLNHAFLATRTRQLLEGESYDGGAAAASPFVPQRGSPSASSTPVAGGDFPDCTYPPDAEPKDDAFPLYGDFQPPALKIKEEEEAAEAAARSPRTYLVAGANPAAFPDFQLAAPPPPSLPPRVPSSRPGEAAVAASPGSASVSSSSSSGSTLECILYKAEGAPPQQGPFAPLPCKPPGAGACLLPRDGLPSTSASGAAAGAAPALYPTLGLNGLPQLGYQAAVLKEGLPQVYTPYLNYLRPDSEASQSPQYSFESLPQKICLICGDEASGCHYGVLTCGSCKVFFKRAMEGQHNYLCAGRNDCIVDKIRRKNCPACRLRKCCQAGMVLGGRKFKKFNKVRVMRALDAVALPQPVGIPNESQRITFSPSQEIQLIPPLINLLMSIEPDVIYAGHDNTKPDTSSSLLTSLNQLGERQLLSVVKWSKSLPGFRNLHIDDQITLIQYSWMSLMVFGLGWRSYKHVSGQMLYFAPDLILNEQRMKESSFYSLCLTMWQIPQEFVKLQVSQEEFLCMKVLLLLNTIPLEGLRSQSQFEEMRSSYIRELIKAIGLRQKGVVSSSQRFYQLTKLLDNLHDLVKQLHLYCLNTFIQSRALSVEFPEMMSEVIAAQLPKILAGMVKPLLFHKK

[2] = system: progesterone-induced endometrial proliferation; test: AntiMcGinty test; assay type: in vivo, rabbit; conditions: for antiprogestational activity compared with the lead compound / standard, in words: antiMcGinty (and antiClauberg), versus CDB-2914 (69B); for ANTIPROGESTATIONAL ACTIVITY ANTI-MCGINITY / ANTIPROGESTATIONAL Anti-McGinty: intraluminal; for ANTIPROGESTATIONAL ACTIVITY ANTI-MCGINITY: estrogen-primed immature rabbits, CDB-2477 = 1.0 (assigned); for ANTIPROGESTATIONAL Anti-McGinty: relative potency, CDB-2914 = 100 (assigned), rabbit
Method: AntiMcGinty Test (McGinty, et al., Endocrinology, 24:829-832 (1939))
Immature female rabbits of the New Zealand White breed (approx. 1 kg body weight) were maintained under standard laboratory conditions and received a subcutaneous injection of 5 μg estradiol in 10% ethanol/sesame oil daily for 6 consecutive days. Twenty-four hours after the last injection of estradiol (day 7) animals underwent sterile abdominal surgery to ligate a 3-4 cm segment of both uterine horns. The experimental compound in appropriate solvent (usually 10% ethanol/sesame oil) was injected intraluminally into the ligated segment of one uterine horn and the vehicle alone into the ligated segment of the contralateral horn. Injection volume was limited to 0.1 ml, and care was taken to prevent leakage. A stimulating dose of progesterone (0.8 mg/day) was administered subcutaneously to each rabbit daily for the next three days (days 7, 8 and 9) for the purpose of inducing endometrial proliferation. All animals were sacrificed on day 10 when a segment central to the ligatures was removed and fixed in 10% neutral buffered formalin and submitted for histological processing. Five micron sections stained with hematoxylin and eosin (H&E) were evaluated microscopically for the degree of endometrial glandular proliferation according to the method of McPhail (McPhail, J. Physiol., 83:145 (1934). The percent inhibition of endometrial proliferation for each rabbit was calculated and the mean of the group of five animals recorded.

[3] = system: pregnancy (number and condition of conceptuses); test: Postcoital test; assay type: in vivo, rat; conditions: oral; for postcoital contraceptive activity relative to the standard, in words: days 0-3 of gestation, versus 69B; for Postcoital MED100: rat, days 0-3

SMILES | binding affinity for the progesterone receptor, in words [1] | BINDING AFFINITY Progester ([1]; estrogen-primed rabbit uterus) | binding affinities compared with the standard, compound 69B [1] | RELATIVE BINDING AFFINITY Progesterone ([1]; estrogen-primed rabbit uterus) | ANTIPROGESTATIONAL Anti-McGinty [2] | also measured
CC#C[C@]1(O)CC[C@H]2[C@@H]3CCC4=CC(=O)CCC4=C3[C@@H](c3ccc(N(C)C)cc3)C[C@@]21C [mifepristone] | greater binding affinity | – | – | – | – | antiprogestational activity compared with the lead compound / standard, in words [2]: more potent than the standard; ANTIPROGESTATIONAL ACTIVITY ANTI-MCGINITY [2]: 1.0
COCC(=O)C1(OC(C)=O)CCC2C3CCC4=CC(=O)CCC4=C3C(c3ccc(N4CCCCC4)cc3)CC21C (stereo not drawn) [Compound 123a, 17α-Acetoxy-1113-[4-(N-piperidino)phenyl]-21-methoxy-19-norpregna-4,9-diene-3,20-dione] | – | 174% | – | – | – | –
CC(=O)O[C@]1(C(C)=O)CC[C@H]2[C@@H]3CCC4=CC(=O)CCC4=C3[C@@H](c3ccc(N4CCCCC4)cc3)C[C@@]21C [Compound 71, 17α-Acetoxy-11β-[4(N-Piperidino)phenyl]-19-norpregna-4,9-diene-3,20-dione] | – | 123% | binding affinities greater than that observed for the standard | – | – | postcoital contraceptive activity relative to the standard, in words [3]: about four times the postcoital contraceptive activity of the standard; also recorded: four times as potent as the standard; Postcoital MED100 [3]: 0.5 mg/day
COCC(=O)[C@@]1(OC)CC[C@H]2[C@@H]3CCC4=CC(=O)CCC4=C3[C@@H](c3ccc(N(C)C)cc3)C[C@@]21C [Compound 113a, 17α,21-Dimethoxy-11β-[4-(N,N-dimethylamino)phenyl]-19-norpregna-4,9-diene-3,20-dione] | high binding affinity | 117% | binding affinities greater than that observed for the standard | – | – | postcoital contraceptive activity relative to the standard, in words [3]: about half as effective as compound 69B
CC(=O)O[C@]1(C(=O)CF)CCC2C3CCC4=CC(=O)CCC4=C3C(c3ccc(N(C)C)cc3)C[C@@]21C (stereo partly drawn) [Compound 13, 17α-acetoxy-21-fluoro-11β-[4-(N,N-dimethylamino)phenyl]-19-norpregna-4,9-diene-3,20-dione] | did not show significant differences | – | binding affinities greater than that observed for the standard | 125% | 103 | antiprogestational activity compared with the lead compound / standard, in words [2]: did not show significant differences
CC(=O)O[C@]1(C(=O)CO)CCC2C3CCC4=CC(=O)CCC4=C3C(c3ccc(N(C)C)cc3)C[C@@]21C (stereo partly drawn) [Compound 41, 17α-acetoxy-21-hydroxy-11β-[4-(N,N-dimethylamino)phenyl]-19-norpregna-4,9-diene-3,20-dione] | – | – | – | 62% | – | –
CC(=O)O[C@]1(C(C)=O)CC[C@H]2[C@@H]3CCC4=CC(=O)CCC4=C3[C@@H](c3ccc(N(C)C)cc3)C[C@@]21C [Compound 69B, 17α-acetoxy-11β-(4-N,N-dimethylaminophenyl)-19-norpregna-4,9-diene-3,20-dione, reference compound] | – | 122% | – | 122% | 100 | RELATIVE BINDING AFFINITY Progesterone ([1]; Table 3, immature estrogen-primed rabbit uterus): 114- %; ANTIPROGESTATIONAL ACTIVITY ANTI-MCGINITY [2]: 0.56; Postcoital MED100 [3]: 2 mg/day
CC(=O)OCC(=O)[C@@]1(OC(C)=O)CC[C@H]2[C@@H]3CCC4=CC(=O)CCC4=C3[C@@H](c3ccc(C(C)=O)cc3)C[C@@]21C [Compound 106b, 17α,21-Diacetoxy-11β-(4-acetylphenyl)19-norpregna-4,9-diene-3,20-dione] | – | 136% | binding affinities greater than that observed for the standard | – | – | –
CN(C)c1ccc(C2CC3(C)C(CCC34OCC4=O)C3CCC4=CC(=O)CCC4=C23)cc1 (stereo not drawn) [Compound 12, 17-Spirooxetano-3′-oxo-11β-[4-(N,N-dimethylamino)phenyl]-19-norpregna-4,9-dien-3-one] | – | – | binding affinities greater than that observed for the standard | 261% | 26 | –
CC(=O)O[C@]1(C(=O)CCl)CCC2C3CCC4=CC(=O)CCC4=C3C(c3ccc(N(C)C)cc3)C[C@@]21C (stereo partly drawn) [Compound 14A] | did not show significant differences | – | binding affinities greater than that observed for the standard | 127% | 75 | antiprogestational activity compared with the lead compound / standard, in words [2]: did not show significant differences
CC(=O)OCC(=O)[C@@]1(OC(C)=O)CCC2C3CCC4=CC(=O)CCC4=C3C(c3ccc(N(C)C)cc3)C[C@@]21C (stereo partly drawn) [Compound 15, 17α,21-diacetoxy-11β-[4-(N,N-dimethylamino)phenyl]-19-norpregna-4,9-diene-3,20-dione] | – | – | – | 103% | 300 | –
